Consider 26 compounds from patent publication US11780826B2 (Amgen Inc., priority 2017, dated 2023).

For this experiment, the system named is Bovine cardiac myofibrils. Kind of experiment: In vitro model of dose-dependent myofibril ATPase modulation (AC1.4, pyruvate kinase/lactate dehydrogenase-coupled ATPase assay at pCa25). Format: biochemical. To be noted: concentration at which ATPase activity was 1.4-fold higher than the bottom of the dose curve, mean of a minimum of two independent tests. A digest of the protocol: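 ATP turnover tracked as NADH absorbance loss at 340 nm, coupled via pyruvate kinase/lactate dehydrogenase, with 1 mM ATP, 2 mM MgCl2 and 12 mM K-PIPES at pH 6.80 (22° C) under EGTA/CaCl2 calcium buffering. Substrate was detergent-treated bovine cardiac myofibrils; 4-parameter curve fit, AC1.4 averaged over at least two runs.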

As for `CC[C@H](NC(=O)[C@H]1CCCN1C(=O)[C@H]1CCCN(S(=O)(=O)N2CC(C#N)C2)C1)c1ccc(C(F)(F)F)cc1F` [Example 293, 1-(((3S)-1-((3-cyano-1-azetidinyl)sulfonyl)-3-piperidinyl)carbonyl)-N-((1S)-1-(2-fluoro-4-(trifluoromethyl)phenyl)propyl)-D-prolinamide], the AC1.4 was found to be 0.7603 µM.
As for `O=C(N[C@@H](c1cc(F)c(Cl)cc1F)C1CC1)[C@H]1C[C@H]2C[C@H]2N1C(=O)c1ccnc(S(=O)(=O)C2CC2)c1` [Example 295, (1R,3R,5R)-N-((R)-(4-chloro-2,5-difluorophenyl)(cyclopropyl)methyl)-2-((2-(cyclopropylsulfonyl)-4-pyridinyl)carbonyl)-2-azabicyclo[3.1.0]hexane-3-carboxamide], the AC1.4 is 0.7671 µM.
Then `O=C(NCc1ccc(C(F)(F)F)cc1F)[C@H]1CCCN1C(=O)[C@H]1CCCN(S(=O)(=O)N2CC(O)(C(F)F)C2)C1` [Example 296, 1-(((3S)-1-((3-(difluoromethyl)-3-hydroxy-1-azetidinyl)sulfonyl)-3-piperidinyl)carbonyl)-N-(2-fluoro-4-(trifluoromethyl)benzyl)-D-prolinamide], with 0.7679 µM; and `N#CC1CN(S(=O)(=O)N2CCC[C@H](C(=O)N3CCC[C@@H]3C(=O)NCc3ccc(F)c(C(F)(F)F)c3)C2)C1` [Example 297, 1-(((3S)-1-((3-cyano-1-azetidinyl)sulfonyl)-3-piperidinyl)carbonyl)-N-(4-fluoro-3-(trifluoromethyl)benzyl)-D-prolinamide], with 0.7685 µM.
The compound `CC(NC(=O)[C@@H](C)N(C)C(=O)c1cccc(S(=O)(=O)N2CC(C#N)C2)c1)c1ccc(Cl)cc1` (stereo partly drawn) [Example 298, N-((2R)-1-((1-(4-chlorophenyl)ethyl)amino)-1-oxopropan-2-yl)-3-((3-cyanoazetidin-1-yl)sulfonyl)-N-methylbenzamide] gave an AC1.4 of 0.7905 µM.
Then `C[C@H](C(=O)N[C@H](C)c1ccc(C(F)(F)F)cc1F)N(C)C(=O)[C@@H]1CN(S(=O)(=O)N2CC(C#N)C2)CCO1` [Example 299, (2S)-4-((3-cyano-1-azetidinyl)sulfonyl)-N-((2R)-1-(((1R)-1-(2-fluoro-4-(trifluoromethyl)phenyl)ethyl)amino)-1-oxo-2-propanyl)-N-methyl-2-morpholinecarboxamide], with 0.7923 µM; and `CS(=O)(=O)c1cccc(C(=O)N2CCCC[C@@H]2C(=O)N[C@@H](c2ccc(C(F)(F)F)c(F)c2)C2CC2)c1` [Example 300, (2R)-N-((R)-cyclopropyl(3-fluoro-4-(trifluoromethyl)phenyl)methyl)-1-(3-(methylsulfonyl)benzoyl)-2-piperidinecarboxamide], with 0.7928 µM; and `O=C(NCc1ccc(C(F)(F)F)cc1)[C@H]1CCCN1C(=O)[C@H]1CCCN(S(=O)(=O)N2CCC2c2ccccc2F)C1` (stereo partly drawn) [Example 302, (2R)-1-((3S)-1-((2-(2-fluorophenyl)azetidin-1-yl)sulfonyl)piperidine-3-carbonyl)-N-(4-(trifluoromethyl)benzyl)pyrrolidine-2-carboxamide], with 0.7944 µM.
Then `CN(C)S(=O)(=O)c1cccc(C(=O)N2CCC[C@@H]2C(=O)NCc2ccc(Cl)c(F)c2)c1` [Example 303, N-(4-chloro-3-fluorobenzyl)-1-(3-(dimethylsulfamoyl)benzoyl)-D-prolinamide], with 0.7956 µM.
Then `N#CC1CN(S(=O)(=O)c2cccc(C(=O)N3CCC[C@@H]3C(=O)N[C@@H](CO)c3ccc(Cl)cc3)c2)C1` [Example 305, N-((1R)-1-(4-chlorophenyl)-2-hydroxyethyl)-1-(3-((3-cyano-1-azetidinyl)sulfonyl)benzoyl)-D-prolinamide], with 0.8013 µM; and `O=C(O)CS(=O)(=O)c1cccc(C(=O)N2[C@@H](C(=O)N[C@@H](c3cc(F)c(C(F)(F)F)cc3F)C3CC3)C[C@H]3C[C@H]32)c1` [Example 306, ((3-(((1R,3R,5R)-3-(((R)-cyclopropyl(2,5-difluoro-4-(trifluoromethyl)phenyl)methyl)carbamoyl)-2-azabicyclo[3.1.0]hexan-2-yl)carbonyl)phenyl)sulfonyl)acetic acid], with 0.8057 µM; and `CS(=O)(=O)c1cccc(C(=O)N2[C@@H](C(=O)N[C@@H](c3ccc(C(F)(F)F)c(F)c3)C3CC3)C[C@H]3C[C@H]32)c1` [Example 307, (1R,3R,5R)-N-((R)-cyclopropyl(3-fluoro-4-(trifluoromethyl)phenyl)methyl)-2-(3-(methylsulfonyl)benzoyl)-2-azabicyclo[3.1.0]hexane-3-carboxamide], with 0.8008 µM.
Compound `N#CC1CN(S(=O)(=O)N2CCC[C@H](C(=O)N3CCC[C@@H]3C(=O)N[C@@H](c3ccc(Cl)cc3)C(F)(F)F)C2)C1` [Example 308, N-((1S)-1-(4-chlorophenyl)-2,2,2-trifluoroethyl)-1-(((3S)-1-((3-cyano-1-azetidinyl)sulfonyl)-3-piperidinyl)carbonyl)-D-prolinamide] gave an AC1.4 of 0.8085 µM.
Then `COc1cc(C(F)(F)F)ccc1[C@H](NC(=O)[C@H]1C[C@H]2C[C@H]2N1C(=O)c1cccc(S(C)(=O)=O)c1)C1CC1` [Example 309, (1R,3R,5R)-N-((R)-cyclopropyl(2-methoxy-4-(trifluoromethyl)phenyl)methyl)-2-(3-(methylsulfonyl)benzoyl)-2-], with 0.822 µM.
Under `O=C(N[C@@H](c1ccc(C(F)(F)F)c(F)c1)C1CC1)[C@H]1C[C@H]2C[C@H]2N1C(=O)c1cccc(S(=O)(=O)C2CC2)c1` [Example 310, (1R,3R,5R)—N—((R)-cyclopropyl(3-fluoro-4-(trifluoromethyl)phenyl)methyl)-2-(3-(cyclopropylsulfonyl)benzoyl)-2-azabicyclo[3.1.0]hexane-3-carboxamide] stands 0.8061 µM.
Then `O=C(NCc1ccc(C(F)(F)F)cc1)[C@H]1CCCN1C(=O)[C@H]1CCCN(S(=O)(=O)N2CC(OCC(F)F)C2)C1` [Example 311, 1-(((3S)-1-((3-(2,2-difluoroethoxy)-1-azetidinyl)sulfonyl)-3-piperidinyl)carbonyl)-N-(4-(trifluoromethyl)benzyl)-D-prolinamide], with 0.8393 µM; and `O=C(NCc1ccc(C(F)(F)F)cc1)[C@H]1CC2(CC2)CN1C(=O)c1cccc(S(=O)(=O)N2CC3(CC3)C2)c1` [Example 312, (6R)-5-((3-(5-azaspiro[2.3]hex-5-ylsulfonyl)phenyl)carbonyl)-N-(4-(trifluoromethyl)benzyl)-5-azaspiro[2.4]heptane-6-carboxamide], with 0.841 µM.
`N#CC1CN(S(=O)(=O)N2CCC[C@H](C(=O)N3CCC[C@@H]3C(=O)NCc3cc(F)cc(Cl)c3)C2)C1` [Example 313, N-(3-chloro-5-fluorobenzyl)-1-(((3S)-1-((3-cyano-1-azetidinyl)sulfonyl)-3-piperidinyl)carbonyl)-D-prolinamide] came in with an AC1.4 of 0.8424 µM.
Under `CC(C)N(C)S(=O)(=O)c1cccc(C(=O)N2CCC[C@@H]2C(=O)NCc2ccc(C(F)(F)F)cc2)c1` [Example 315, 1-(3-(methyl(2-propanyl)sulfamoyl)benzoyl)-N-(4-(trifluoromethyl)benzyl)-D-prolinamide] stands 0.8574 µM; under `CS(=O)(=O)c1cccc(C(=O)N2[C@@H](C(=O)N[C@@H](c3cc(F)c(Cl)cc3F)C3(O)CC3)C[C@H]3C[C@H]32)c1` [Example 316, (1R,3R,5R)-N-((S)-(4-chloro-2,5-difluorophenyl)(1-hydroxycyclopropyl)methyl)-2-(3-(methylsulfonyl)benzoyl)-2-azabicyclo[3.1.0]hexane-3-carboxamide], 0.8325 µM; under `C[C@H](C(=O)N[C@H](C)c1ccc(Cl)cc1F)N(C)C(=O)[C@H]1CCCN(S(=O)(=O)N2CC(C#N)C2)C1` [Example 317, (3S)-N-((2R)-1-(((1R)-1-(4-chloro-2-fluorophenyl)ethyl)amino)-l-oxo-2-propanyl)-1-((3-cyano-1-azetidinyl)sulfonyl)-N-methyl-3-piperidinecarboxamide], 0.8619 µM.
Then `CS(=O)(=O)c1cc(C(=O)N2CCCC[C@@H]2C(=O)N[C@@H](c2cc(F)c(Cl)cc2F)C2CC2)ccn1` [Example 318, (2R)-N-((R)-(4-chloro-2,5-difluorophenyl)(cyclopropyl)methyl)-1-((2-(methylsulfonyl)-4-pyridinyl)carbonyl)-2-piperidinecarboxamide], with 0.8652 µM; and `N#C[C@@H]1CCN(S(=O)(=O)N2CCC[C@H](C(=O)N3CCC[C@@H]3C(=O)NCc3ccc(C(F)(F)F)cc3)C2)C1` [Example 319, 1-(((3S)-1-(((3R)-3-cyano-1-pyrrolidinyl)sulfonyl)-3-piperidinyl)carbonyl)-N-(4-(trifluoromethyl)benzyl)-D-prolinamide], with 0.8692 µM; and `CS(=O)(=O)c1cccc(C(=O)N2CC(F)(F)C[C@@H]2C(=O)N[C@@H](c2ccc(C(F)(F)F)cc2F)C2CC2)c1` [Example 320, N-((R)-cyclopropyl(2-fluoro-4-(trifluoromethyl)phenyl)methyl)-4,4-difluoro-1-(3-(methylsulfonyl)benzoyl)-D-prolinamide], with 0.8613 µM.
Under `C[C@@H](NC(=O)[C@H]1CCCN1C(=O)[C@H]1CCCN(S(=O)(=O)N2CC(S(C)(=O)=O)C2)C1)c1ccc(F)cc1F` [Example 321, N-((1R)-1-(2,4-difluorophenyl)ethyl)-1-(((3S)-1-((3-(methylsulfonyl)-1-azetidinyl)sulfonyl)-3-piperidinyl)carbonyl)-D-prolinamide] stands 0.8725 µM; under `O=C(N[C@@H](c1ccc(C(F)(F)F)cc1F)C1CC1)[C@H]1CCCCN1C(=O)c1cccc(C(O)(O)C(F)(F)F)c1` [Example 322, (2R)-N-((R)-cyclopropyl(2-fluoro-4-(trifluoromethyl)phenyl)methyl)-1-(3-(2,2,2-trifluoro-1,1-dihydroxyethyl)benzoyl)-2-piperidinecarboxamide], 0.8731 µM.
